Consider 21 molecules from patent EP3414229B1, “QUINOLINONE LYSYL OXIDASE-LIKE 2 INHIBITORS AND USES THEREOF” (Pharmakea, Inc., priority 2016, dated 2017).

The first assay concerns the target T1, human LOXL2 (Homo sapiens, UniProt Q9Y4K0).
T1 construct: expressed in transfected cells; 10-20X concentrated conditioned media used as the enzyme source
T1 sequence (Q9Y4K0 26-774): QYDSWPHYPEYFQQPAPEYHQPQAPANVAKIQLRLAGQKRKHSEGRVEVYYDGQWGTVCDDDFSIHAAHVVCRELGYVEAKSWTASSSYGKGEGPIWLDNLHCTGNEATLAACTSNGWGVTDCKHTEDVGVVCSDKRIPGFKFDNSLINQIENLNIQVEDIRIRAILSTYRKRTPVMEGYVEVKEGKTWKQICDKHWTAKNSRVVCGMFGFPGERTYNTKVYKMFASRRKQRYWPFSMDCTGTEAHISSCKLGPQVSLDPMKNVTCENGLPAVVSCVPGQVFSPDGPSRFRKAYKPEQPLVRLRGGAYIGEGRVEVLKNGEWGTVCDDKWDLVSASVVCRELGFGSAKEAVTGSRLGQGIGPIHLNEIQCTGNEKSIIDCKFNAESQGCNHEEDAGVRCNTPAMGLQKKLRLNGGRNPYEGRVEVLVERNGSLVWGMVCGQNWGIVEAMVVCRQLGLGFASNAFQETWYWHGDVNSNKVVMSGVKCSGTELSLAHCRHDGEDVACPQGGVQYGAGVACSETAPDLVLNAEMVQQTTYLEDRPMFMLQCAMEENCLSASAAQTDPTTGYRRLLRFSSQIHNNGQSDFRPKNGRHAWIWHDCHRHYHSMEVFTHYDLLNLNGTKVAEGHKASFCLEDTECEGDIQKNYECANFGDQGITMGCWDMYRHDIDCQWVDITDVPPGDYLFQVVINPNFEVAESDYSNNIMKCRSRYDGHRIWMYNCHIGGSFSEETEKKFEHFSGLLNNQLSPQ
Kind of assay: Human LOXL2 Amine Oxidase Activity Assay (Amplex Red fluorescence). As to conditions: concentrated conditioned media from CHO cells stably expressing human LOXL2; 2h at 37 °C with test compound; DAP substrate. It is filed as biochemical. On the procedure: Example B-1: Human LOXL2 Amine Oxidase Activity Assay
LOXL2 amine oxidase activity is evaluated by measuring Amplex Red fluorescence using 10-20X concentrated conditioned media from CHO cells stably expressing human LOXL2. To assay for amine oxidase activity, 10 µL of the concentrated conditioned media is incubated with 2 µL of test compound in DMSO and 73 µL Assay Buffer (50 mM Borate Buffer, pH8) for 2h at 37 °C. After the 2h incubation, 5 ul of 10 mM 1,5-Diaminopentane (DAP) diluted in Assay Buffer and 10 µl of Amplex Red Mix (8.5 µl Assay Buffer + 0.5 µl of 10 mM Amplex Red + 1 µl of 500 U/ml Horseradish Peroxidase) are added and the plate mixed and immediately placed on the FlexStaion for fluorescence measurements. Fluorescence is read in kinetic mode every 2 min for 1 hour at excitation = 544 and emission = 590. The amine oxidase activity is calculated from the slope of the linear portion of the curve.
`COc1ccc2[nH]c(CN)cc(=O)c2c1` [Compound 1-9, 2-(Aminomethyl)-6-methoxyquinolin-4(1H)-one]: the 50% inhibitory concentration (IC50) is below 300 nM.

Regarding `NCc1cc(=O)c2cc(-c3ccccc3)ccc2[nH]1` [Compound 1-5, 2-(Aminomethyl)-6-phenylquinolin-4(1H)-one], the concentration for half-maximal inhibition (IC50) is below 300 nM.

Take `NCc1cc(=O)c2ccccc2[nH]1` [Compound 1-1, 2-(Aminomethyl)quinolin-4(1H)-one]: the IC50 was below 300 nM.

Take `NCc1cc(=O)c2cc(-c3ccc(F)cc3)ccc2[nH]1` [Compound 1-11, 2-(Aminomethyl)-6-(4-fluorophenyl)quinolin-4(1H)-one]: the half-inhibitory concentration (IC50) is below 300 nM.

As to `NCc1cc(=O)c2cc(-c3ccc(F)cc3Cl)ccc2[nH]1` [Compound 1-70, 2-(Aminomethyl)-6-(2-chloro-4-fluorophenyl)quinolin-4(1H)-one], the IC50 was below 300 nM.

Molecule `Cn1cc(-c2ccc3[nH]c(CN)cc(=O)c3c2)cn1` [Compound 1-47, 2-(Aminomethyl)-6-(1-methyl-1H-pyrazol-4-yl)quinolin-4(1H)-one] had a concentration for half-maximal inhibition (IC50) below 300 nM.

Regarding `COCCOc1ccc2[nH]c(CN)cc(=O)c2c1` [Compound 1-78, 2-(Aminomethyl)-6-(2-methoxyethoxy)quinolin-4(1H)-one], the IC50 was below 300 nM.

`Cn1c(CN)cc(=O)c2ccccc21` [Compound 1-2, 2-(Aminomethyl)-1-methylquinolin-4(1H)-one]: the half-inhibitory concentration (IC50) is above 1000 nM.

The molecule `NCc1cc(=O)c2cc(-n3cccn3)ccc2[nH]1` [Compound 1-8, 2-(Aminomethyl)-6-(1H-pyrazol-1-yl)quinolin-4(1H)-one] had a half-maximal inhibitory concentration (IC50) below 300 nM.

In the case of `NCc1cc(=O)c2cc(-c3cnc(C(F)(F)F)nc3)ccc2[nH]1` [Compound 1-77, 2-(Aminomethyl)-6-(2-(trifluoromethyl)pyrimidin-5-yl)quinolin-4(1H)-one], the IC50 is below 300 nM.

`COc1ccc(-c2ccc3[nH]c(CN)cc(=O)c3c2)cc1F` [Compound 1-72, 2-(Aminomethyl)-6-(3-fluoro-4-methoxyphenyl)quinolin-4(1H)-one] showed an IC50 below 300 nM.

Molecule `NCc1cc(=O)c2cc(-c3cncc(OCc4ccccc4)c3)ccc2[nH]1` [Compound 1-66, 2-(Aminomethyl)-6-(5-(benzyloxy)pyridin-3-yl)quinolin-4(1H)-one] yielded a concentration for half-maximal inhibition (IC50) below 300 nM.

Turning to `NCc1cc(=O)c2cc(C#Cc3ccccc3)ccc2[nH]1` [Compound 1-7, 2-(Aminomethyl)-6-(phenylethynyl)quinolin-4(1H)-one], the IC50 is below 300 nM.

As for `C#Cc1ccc2[nH]c(CN)cc(=O)c2c1` [Compound 1-4, 2-(Aminomethyl)-6-ethynylquinolin-4(1H)-one], the IC50 was below 300 nM.

Molecule `Cc1ccc(=O)n(-c2ccc3[nH]c(CN)cc(=O)c3c2)c1` [Compound 1-46, 2-(Aminomethyl)-6-(5-methyl-2-oxopyridin-1(2H)-yl)quinolin-4(1H)-one] had an IC50 below 300 nM.

Regarding `NCc1cc(=O)c2cc(Br)ccc2[nH]1` [Compound 1-3, 2-(Aminomethyl)-6-bromoquinolin-4(1H)-one], the 50% inhibitory concentration (IC50) is below 300 nM.

In the case of `NCc1cc(=O)c2cc(Oc3ccccc3)ccc2[nH]1` [Compound 1-21, 2-(Aminomethyl)-6-phenoxyquinolin-4(1H)-one], the IC50 is below 300 nM.

`NCc1cc(=O)c2cc(-c3ccc(C(F)(F)F)nc3)ccc2[nH]1` [Compound 1-74, 2-(Aminomethyl)-6-(6-(trifluoromethyl)pyridin-3-yl)quinolin-4(1H)-one] came in with an IC50 below 300 nM.

`NCc1cc(=O)c2cc(-c3cn(-c4ccccc4)nn3)ccc2[nH]1` [Compound 1-6, 2-(Aminomethyl)-6-(1-phenyl-1H-1,2,3-triazol-4-yl)quinolin-4(1H)-one] had an IC50 below 300 nM.

The molecule `NCc1cc(=O)c2cc(-c3cncnc3)ccc2[nH]1` [Compound 1-40, 2-(Aminomethyl)-6-(pyrimidin-5-yl)quinolin-4(1H)-one] yielded an IC50 below 300 nM.

`NCc1cc(=O)c2cc(-c3cccc4cccnc34)ccc2[nH]1` [Compound 1-65, 2-(Aminomethyl)-[6,8'-biquinolin]-4(1H)-one]: the concentration for half-maximal inhibition (IC50) is below 300 nM.

The test system of a further assay is C57B1/6 male mice. Kind of assay: Mouse Oropharyngeal Bleomycin Model of Lung Fibrosis. It is filed as in vivo. As to conditions: dosed prophylactically at 60 mg/kg p.o. On the procedure:
Example B-3: Mouse Oropharyngeal Bleomycin Model of Lung Fibrosis
Lung fibrosis is induced in C57B1/6 male mice by administering bleomycin (0.1-4 U/kg) via oropharyngeal instillation. Mice are either pretreated with vehicle or test compound (1 day to 1 hour) orally, intraperitoneally, intravenously or subcutaneously before bleomycin installation (prophylactic dosing) or 7-14 days post bleomycin instillation (therapeutic dosing). The route and frequency of dosing are based on previously determined pharmacokinetic properties for the LOXL2 inhibitor in mouse. After bleomycin instillation animals are monitored daily for weight loss and clinical signs for 14-28 days prior to sacrifice. […] For histological examination, lung slices are stained with Masson's trichrome or Picro-Sirius red to measure cross-linked collagen as an indicator of fibrosis and an Ashcroft score of lung fibrotic and inflammatory damage determined. In addition, immunohistochemistry of fibrotic proteins such as a-smooth muscle actin can be recorded. […] After the acid hydrolysis, 25-100 µl of the supernatant is dried down, resuspended in 25 µl water and the hydroxyproline content determined by the addition of 0.5 ml Chloramine T solution (140 mg Chloramine T in 6.5 ml ddH20 + 1 ml n-propanol + 2.5 ml 1M sodium acetate) and incubation at room temperature for 20 min. […]
Regarding `NCc1cc(=O)c2cc(Br)ccc2[nH]1` [Compound 1-3, 2-(Aminomethyl)-6-bromoquinolin-4(1H)-one], the “efficacy in bleomycin model of lung fibrosis” value is “efficacious”.

The term IC50 denotes the concentration at which inhibition is half-maximal.
